Source: US11000033B2, “Ketone or oxime compound, and herbicide” (NISSAN CHEMICAL CORPORATION, priority 2014, dated 2021)

Columns and labels:
Type in all cases: in vivo
Galium spurium = experiment: Test Example 4: herbicidal effect by soil treatment (symbol Q); details: application herbicide amount 320 g/ha
Procedure, shortened: (§1)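 Seeds were sown in sterilized diluvial soil, covered with about 1.5 cm of soil, and the soil surface was sprayed with a water-diluted emulsion of the compound at a predetermined rate. Plants grew in a greenhouse at 25° C. to 30° C.; effects were scored visually 3 weeks after application.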

Scirpus juncoides = experiment: Test Example 1: herbicidal activity, application before weed generation in submerged conditions (symbol B); details: application herbicide amount 320 g/ha
Procedure, shortened: (§2)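 Pre-emergence, paddy conditions: emulsifiable formulation diluted in water, dosed onto floodwater (4 cm depth) on sowing day. Alluvial soil; weeds sown mixed; rice transplanted at 2.5-leaf stage. Greenhouse 25–30 °C, 3 wk. Score 0–5 (5 = ≥90% kill, 0 = ≤5%).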

[1] = tested on: Echinochloa oryzacola Vasing.; experiment: Test Example 1: herbicidal activity, application before weed generation in submerged conditions (symbol A); details: application herbicide amount 320 g/ha
Procedure, shortened: as §2

Chenopodium album = experiment: Test Example 4: herbicidal effect by soil treatment (symbol O); details: application herbicide amount 320 g/ha
Procedure, shortened: as §1

Amaranthus retroflexus = experiment: Test Example 4: herbicidal effect by soil treatment (symbol N); details: application herbicide amount 320 g/ha
Procedure, shortened: as §1

Veronica persica = experiment: Test Example 4: herbicidal effect by soil treatment (symbol R); details: application herbicide amount 320 g/ha
Procedure, shortened: as §1

Alopecurus myosuroides = experiment: Test Example 5: herbicidal effect by foliage application, plastic box (symbol J); details: 320 g/ha, 3 weeks after application
Procedure, shortened: (§3)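 Leaf-applied emulsion, water-diluted to a preset herbicide dose, on two-week-old seedlings raised in a 25° C. to 30° C. greenhouse; injury rated at 3 weeks using earlier criteria.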

Setaria viridis [2] = experiment: Test Example 4: herbicidal effect by soil treatment (symbol G); details: application herbicide amount 320 g/ha
Procedure, shortened: as §1

[3] = tested on: Echinochloa crus-galli var. crus-galli; experiment: Test Example 5: herbicidal effect by foliage application, plastic box (symbol H); details: 320 g/ha, 3 weeks after application
Procedure, shortened: as §3

Setaria viridis [4] = experiment: Test Example 5: herbicidal effect by foliage application, plastic box (symbol G); details: 320 g/ha, 3 weeks after application
Procedure, shortened: as §3

Question: Which results are given for `CON=C(C)CC1CC(OC(=O)N2CCOCC2)=C(c2c(C)cc(-c3ccc(Cl)cc3F)cc2C)C1=O` (centres unmarked) [6-089]?
Answer: Herbicidal effect grade, Q: Galium spurium (Galium spurium): 0 (Herbicidal ratio of 5% or lower (almost no effect)); Herbicidal effect grade, B: Scirpus juncoides (Scirpus juncoides): 3 (Herbicidal ratio of 40% or higher and lower than 70%); Herbicidal effect grade, A: Echinochloa oryzacola Vasing. [1]: 5 (Herbicidal ratio of 90% or more (almost completely withered)); Herbicidal effect grade, O: Chenopodium album (Chenopodium album): 0 (Herbicidal ratio of 5% or lower (almost no effect)); Herbicidal effect grade, N: Amaranthus retroflexus (Amaranthus retroflexus): 0 (Herbicidal ratio of 5% or lower (almost no effect)); Herbicidal effect grade, R: Veronica persica (Veronica persica): 0 (Herbicidal ratio of 5% or lower (almost no effect)); J: Alopecurus myosuroides, herbicidal effect (criteria of Test Example 1) (Alopecurus myosuroides): 5 (Herbicidal ratio of 90% or more (almost completely withered)); Herbicidal effect grade, G: Setaria viridis (Setaria viridis [2]): 4 (Herbicidal ratio of 70% or higher and lower than 90%)

Question: Which “Q: Galium spurium, herbicidal effect grade” value (Galium spurium) does the source give for `CON=C(C)CC1CC(OC(=O)SC(C)(C)C)=C(c2c(C)cc(-c3ccc(Cl)cc3)cc2C)C1=O` (centres unmarked) [6-082] here?
Answer: 0 (Herbicidal ratio of 5% or lower (almost no effect))

Question: And the “Herbicidal effect grade, B: Scirpus juncoides” value (Scirpus juncoides)?
Answer: 4 (Herbicidal ratio of 70% or higher and lower than 90%)

Question: And the “H: Echinochloa crus-galli var. crus-galli, herbicidal effect (criteria of Test Example 1)” value [3]?
Answer: 5 (Herbicidal ratio of 90% or more (almost completely withered))

Question: What about the “Herbicidal effect grade, A: Echinochloa oryzacola Vasing.” value [1] of the same molecule?
Answer: 5 (Herbicidal ratio of 90% or more (almost completely withered))

Question: And the “G: Setaria viridis, herbicidal effect (criteria of Test Example 1)” value (Setaria viridis [4])?
Answer: 5 (Herbicidal ratio of 90% or more (almost completely withered))

Question: What about the “O: Chenopodium album, herbicidal effect grade” value (Chenopodium album) of the same molecule?
Answer: 0 (Herbicidal ratio of 5% or lower (almost no effect))

Question: What about the “R: Veronica persica, herbicidal effect grade” value (Veronica persica) of the same molecule?
Answer: 3 (Herbicidal ratio of 40% or higher and lower than 70%)

Question: What about the “J: Alopecurus myosuroides, herbicidal effect (criteria of Test Example 1)” value (Alopecurus myosuroides) of the same molecule?
Answer: 5 (Herbicidal ratio of 90% or more (almost completely withered))

Question: What about the “G: Setaria viridis, herbicidal effect grade” value (Setaria viridis [2]) of the same molecule?
Answer: 5 (Herbicidal ratio of 90% or more (almost completely withered))

Question: Which results are given for `CC(=O)CC1CC(O)=C(c2c(C)cc(Br)cc2C)C1=O` (centres unmarked) [7-002]?
Answer: Herbicidal effect grade, Q: Galium spurium (Galium spurium): 0 (Herbicidal ratio of 5% or lower (almost no effect)); Herbicidal effect grade, B: Scirpus juncoides (Scirpus juncoides): 0 (Herbicidal ratio of 5% or lower (almost no effect)); H: Echinochloa crus-galli var. crus-galli, herbicidal effect (criteria of Test Example 1) [3]: 5 (Herbicidal ratio of 90% or more (almost completely withered)); Herbicidal effect grade, A: Echinochloa oryzacola Vasing. [1]: 0 (Herbicidal ratio of 5% or lower (almost no effect)); G: Setaria viridis, herbicidal effect (criteria of Test Example 1) (Setaria viridis [4]): 3 (Herbicidal ratio of 40% or higher and lower than 70%); Herbicidal effect grade, O: Chenopodium album (Chenopodium album): 0 (Herbicidal ratio of 5% or lower (almost no effect)); Herbicidal effect grade, N: Amaranthus retroflexus (Amaranthus retroflexus): 0 (Herbicidal ratio of 5% or lower (almost no effect)); J: Alopecurus myosuroides, herbicidal effect (criteria of Test Example 1) (Alopecurus myosuroides): 4 (Herbicidal ratio of 70% or higher and lower than 90%); Herbicidal effect grade, G: Setaria viridis (Setaria viridis [2]): 4 (Herbicidal ratio of 70% or higher and lower than 90%)

Question: What does the source list for `CON=C(C)CC1CC(O)=C(c2c(C)cc(-c3ccsc3)cc2C)C1=O` (centres unmarked) [6-106]?
Answer: Herbicidal effect grade, Q: Galium spurium (Galium spurium): 0 (Herbicidal ratio of 5% or lower (almost no effect)); Herbicidal effect grade, B: Scirpus juncoides (Scirpus juncoides): 5 (Herbicidal ratio of 90% or more (almost completely withered)); H: Echinochloa crus-galli var. crus-galli, herbicidal effect (criteria of Test Example 1) [3]: 5 (Herbicidal ratio of 90% or more (almost completely withered)); Herbicidal effect grade, A: Echinochloa oryzacola Vasing. [1]: 5 (Herbicidal ratio of 90% or more (almost completely withered)); G: Setaria viridis, herbicidal effect (criteria of Test Example 1) (Setaria viridis [4]): 5 (Herbicidal ratio of 90% or more (almost completely withered)); Herbicidal effect grade, O: Chenopodium album (Chenopodium album): 0 (Herbicidal ratio of 5% or lower (almost no effect)); Herbicidal effect grade, N: Amaranthus retroflexus (Amaranthus retroflexus): 0 (Herbicidal ratio of 5% or lower (almost no effect)); Herbicidal effect grade, R: Veronica persica (Veronica persica): 0 (Herbicidal ratio of 5% or lower (almost no effect)); J: Alopecurus myosuroides, herbicidal effect (criteria of Test Example 1) (Alopecurus myosuroides): 5 (Herbicidal ratio of 90% or more (almost completely withered))

Question: What does the source list for `CON=C(C)CC1CC(OC(=O)N(C)C)=C(c2c(C)cc(C)cc2OC)C1=O` (centres unmarked) [6-109]?
Answer: Herbicidal effect grade, Q: Galium spurium (Galium spurium): 0 (Herbicidal ratio of 5% or lower (almost no effect)); Herbicidal effect grade, B: Scirpus juncoides (Scirpus juncoides): 3 (Herbicidal ratio of 40% or higher and lower than 70%); H: Echinochloa crus-galli var. crus-galli, herbicidal effect (criteria of Test Example 1) [3]: 5 (Herbicidal ratio of 90% or more (almost completely withered)); Herbicidal effect grade, A: Echinochloa oryzacola Vasing. [1]: 5 (Herbicidal ratio of 90% or more (almost completely withered)); G: Setaria viridis, herbicidal effect (criteria of Test Example 1) (Setaria viridis [4]): 5 (Herbicidal ratio of 90% or more (almost completely withered)); Herbicidal effect grade, O: Chenopodium album (Chenopodium album): 0 (Herbicidal ratio of 5% or lower (almost no effect)); Herbicidal effect grade, N: Amaranthus retroflexus (Amaranthus retroflexus): 0 (Herbicidal ratio of 5% or lower (almost no effect)); Herbicidal effect grade, R: Veronica persica (Veronica persica): 0 (Herbicidal ratio of 5% or lower (almost no effect)); J: Alopecurus myosuroides, herbicidal effect (criteria of Test Example 1) (Alopecurus myosuroides): 5 (Herbicidal ratio of 90% or more (almost completely withered))
